Experimental data: patent US4426377A, “Clavulanic acid derivatives their preparation and use” (Beecham Group Limited, priority 1977, dated 1984)

Columns and labels:
[1] = signs of drug toxicity during the in-vivo tests; details: during the in-vivo tests in mice
Protocol: (§1) a. Sub-cutanvenous administration: Groups of mice were infected inter peritoneally with Escherichia coli JT39. At 1 and 5 hours post infection the mice were treated with amoxycillin (Amox.) or with amoxycillin and synergist. The solutions were made up in phosphate buffer. The results were as follows:
(§2) b. Oral administration: Groups of mice were infected inter peritoneally with Escherichia coli JT39. At 1, 3 and 5 hours post-infection the mice were treated with amoxycillin or with amoxycillin and synergist. The solutions were made up in phosphate buffer.

[2] = test system: gram negative bacteria such as Escherichia and Klebsiella and gram positive bacteria such as Staphylococcus; assay: summary of synergism with penicillins; details: against gram negative and gram positive bacteria
Protocol: as §1, §2

Escherichia coli JT 39 = assay: CD50 in intraperitoneal Escherichia coli JT 39 infection in mice, sub-cutaneous dosing (Demonstration 2); format: in vivo, mice infected with Escherichia coli; details: with amoxycillin, E. coli JT 39 infection in mice
Protocol: b. […] Dosing was sub-cutaneous and 1 and 5 hours post infection.

Staph. Russell = assay: microliter MIC test, Staph. Russell; format: cell-based, Staphylococcus
Protocol: (§3) a. The antibacterial and synergistic activity of the title compound (referred to as "Synergist" in the Table) was determined by a conventional microliter method.

Proteus C 889 = assay: microliter MIC test, Proteus C 889; format: cell-based; details: for MIC of ampicillin with title compound: trailing end point
Protocol: as §3

E. Coli JT 410 = assay: microliter MIC test, E. coli JT 410; format: cell-based, Escherichia coli
Protocol: as §3

Kleb. E 70 = assay: microliter MIC test, Kleb. E 70; format: cell-based, Klebsiella
Protocol: as §3

O=C1CC(OC/C=C2\O[C@@H]3CC(=O)N3[C@H]2C(=O)O)N1 (some centres unmarked) [Example 2, Sodium 9-O-(azetidin-2'-on-4'-yl)clavulanate]
signs of drug toxicity [1]: No signs of drug toxicity were observed | synergism with penicillins such as amoxycillin [2]: effective synergist for penicillins such as amoxycillin against gram negative bacteria such as Escherichia and Klebsiella and gram positive bacteria such as Staphylococcus

CC(NC=O)OC/C=C1\O[C@@H]2CC(=O)N2[C@H]1C(=O)O (some centres unmarked) [Example 9, Lithium 9-O-(1-formamidoethyl)clavulanate]
effect on the effectiveness of amoxycillin (Escherichia coli JT 39): found to enhance the effectiveness of amoxycillin

NCC(=O)NCOCC=C1OC2CC(=O)N2C1C(=O)O (centres unmarked) [Example 11, 9-O-(Glycylaminomethyl)clavulanic acid]
MIC of ampicillin with title compound/synergist (Staph. Russell; Amp. + 1 μg/ml of the compound): 1.25 µg/mL | MIC of ampicillin with title compound/synergist (Staph. Russell; Amp. + 5 μg/ml of the compound): 0.15 µg/mL | MIC (Staph. Russell; alone): 8 µg/mL | MIC of ampicillin with title compound (Proteus C 889; Amp. + 1 μg/ml of the compound): 8 µg/mL | MIC of ampicillin with title compound (Proteus C 889; Amp. + 5 μg/ml of the compound): 2 µg/mL | MIC (Proteus C 889; alone): 250 µg/mL | MIC of ampicillin with title compound/synergist (E. Coli JT 410; Amp. + 5 μg/ml of the compound): 62.5 µg/mL | MIC (E. Coli JT 410; alone): 62.5 µg/mL | MIC of ampicillin with title compound/synergist (Kleb. E 70; Amp. + 1 μg/ml of the compound): 6.25 µg/mL | MIC of ampicillin with title compound/synergist (Kleb. E 70; Amp. + 5 μg/ml of the compound): 1.5 µg/mL | MIC (Kleb. E 70; alone): 62.5 µg/mL
